Laboratory results: US20100105727A1, “NOVEL BENZAMIDE DERIVATIVES AND PROCESS FOR THE PREPARTION THEREOF” (DONG-A-PHARM. CO., LTD., priority 2007, published 2010)

Target: T1, human 5-HT4 receptor (Homo sapiens, UniProt Q13639)
T1 construct: expressed in transfected cells; host or cells: COS-7
Experiment: Binding affinity of compounds for 5-HT4 receptor (radioligand displacement, membrane lysates of COS-7 cells)
Conditions: inhibition of specific binding of 0.595 nM [H3]-AGR113808; COS-7 cell membrane lysates expressing human 5-HT4 receptor
Method: For this purpose, COS-7 cells expressing the human 5-HT4 receptor were constructed and lysed to obtain cell membrane lysates which were then used in binding assay experiments. For binding assay, the membrane lysates were mixed and incubated with different concentrations of test materials and [H3]-AGR113808. […] After incubation was completed, the reaction products were collected in a GF/B glass fiber filter using a Packard cell harvester, and the bound radioactivity was then determined using a liquid cell scintillation counter (Packard TopCount NXT™, Perkin Elmer). Specific binding of the radioligand to the 5-HT4 receptor was calculated by subtracting the non-specific binding of the radioligand from the total radioligand binding. IC50 was calculated from % inhibition of specific binding of the radioligand to the 5-HT4 receptor, with respect to varying concentrations of the test materials.

T1 sequence (Q13639 whole entry): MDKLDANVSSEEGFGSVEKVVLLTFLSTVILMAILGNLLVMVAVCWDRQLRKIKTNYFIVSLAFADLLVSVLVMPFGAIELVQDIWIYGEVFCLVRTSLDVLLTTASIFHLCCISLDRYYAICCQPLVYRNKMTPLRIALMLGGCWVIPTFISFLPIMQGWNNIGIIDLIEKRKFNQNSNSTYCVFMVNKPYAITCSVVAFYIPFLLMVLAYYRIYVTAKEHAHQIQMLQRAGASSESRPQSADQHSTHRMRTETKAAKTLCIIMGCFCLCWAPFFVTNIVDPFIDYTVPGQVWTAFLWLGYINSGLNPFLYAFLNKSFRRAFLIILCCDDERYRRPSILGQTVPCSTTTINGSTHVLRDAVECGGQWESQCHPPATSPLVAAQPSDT

| IC50 | SMILES |
| --- | --- |
| 53 nM | CCCCOC(=O)N1CCC(CN2CC[C@H](NC(=O)c3cc(Cl)c(N)cc3OC)[C@H](OC)C2)CC1 (relative stereo) [Compound 7, butyl 4-[(cis-4-(4-amino-5-chloro-2-methoxybenzamido)-3-methoxypiperidin-1-yl)methyl]piperidine-1-carboxylate] |
| 107 nM | CCCCC(=S)N1CCC(CN2CC[C@H](NC(=O)c3cc(Cl)c(N)cc3OC)[C@H](OC)C2)CC1 (relative stereo) [Compound 33, cis-4-amino-5-chloro-N-[1-((1-pentanethioylpiperidin-4-yl)methyl)-3-methoxypiperidin-4-yl]-2-methoxybenzamide] |
| 175 nM | COc1cc(N)c(Cl)cc1C(=O)N[C@H]1CCN(CC2CCN(C(=S)CCC(C)C)CC2)C[C@H]1OC (relative stereo) [Compound 37, cis-4-amino-5-chloro-N-[1-((1-(4-methylpentanethioyl)piperidin-4-yl)methyl)-3-methoxypiperidin-4-yl]-2-methoxybenzamide] |
| 89 nM | COc1cc(N)c(Cl)cc1C(=O)N[C@H]1CCN(CC2CCN(C(=O)CCC(C)C)CC2)C[C@H]1OC (relative stereo) [Compound 27, cis-4-amino-5-chloro-N-[1-((1-(4-methylpentanoyl)piperidin-4-yl)methyl)-3-methoxypiperidin-4-yl]-2-methoxybenzamide] |
| 61 nM | CCCCCC(=O)N1CCC(CN2CC[C@H](NC(=O)c3cc(Cl)c(N)cc3OC)[C@H](OC)C2)CC1 (relative stereo) [Compound 23, cis-4-amino-5-chloro-N-[1-((1-hexanoylpiperidin-4-yl)methyl)-3-methoxypiperidin-4-yl]-2-methoxybenzamide] |
| 214 nM | COc1cc(N)c(Cl)cc1C(=O)N[C@H]1CCN(CC2CCN(C(C)=S)CC2)C[C@H]1OC (relative stereo) [Compound 31, cis-4-amino-5-chloro-N-[1-((1-ethanethioylpiperidin-4-yl)methyl)-3-methoxypiperidin-4-yl]-2-methoxybenzamide] |
| 85 nM | COc1cc(N)c(Cl)cc1C(=O)N[C@H]1CCN(CCCCCC(=O)Nc2cc(C)cc(C)n2)C[C@H]1OC (relative stereo) [Compound 60, cis-4-amino-5-chloro-N-[1-(6-oxo-6-(4,6-dimethylpyridin-2-ylamino)hexyl)-3-methoxypiperidin-4-yl]-2-methoxybenzamide] |
| 77 nM | COc1cc(N)c(Cl)cc1C(=O)N[C@H]1CCN(CCCCCC(=O)Nc2cccc3ncccc23)C[C@H]1OC (relative stereo) [Compound 58, cis-4-amino-5-chloro-N-[1-(6-oxo-6-(quinolin-5-ylamino)hexyl)-3-methoxypiperidin-4-yl]-2-methoxybenzamide] |
| 130 nM | COC(=O)N1CCC(CN2CC[C@H](NC(=O)c3cc(Cl)c(N)cc3OC)[C@H](OC)C2)CC1 (relative stereo) [Compound 5, methyl 4-[(cis-4-(4-amino-5-chloro-2-methoxybenzamido)-3-methoxypiperidin-1-yl)methyl]piperidine-1-carboxylate] |
| 175 nM | COc1cc(N)c(Cl)cc1C(=O)N[C@H]1CCN(CC2CCN(C(=S)CC(C)C)CC2)C[C@H]1OC (relative stereo) [Compound 36, cis-4-amino-5-chloro-N-[1-((1-(3-methylbutanethioyl)piperidin-4-yl)methyl)-3-methoxypiperidin-4-yl]-2-methoxybenzamide] |
| 192 nM | CCC(C)CCOC(=O)N1CCC(CN2CC[C@H](NC(=O)c3cc(Cl)c(N)cc3OC)[C@H](OC)C2)CC1 (relative stereo) [Compound 12, 3-methyl-pentyl 4-[(cis-4-(4-amino-5-chloro-2-methoxybenzamido)-3-methoxypiperidin-1-yl)methyl]piperidine-1-carboxylate] |
| 148 nM | CCCC(=S)N1CCC(CN2CC[C@H](NC(=O)c3cc(Cl)c(N)cc3OC)[C@H](OC)C2)CC1 (relative stereo) [Compound 35, cis-4-amino-5-chloro-N-[1-((1-butanethioylpiperidin-4-yl)methyl)-3-methoxypiperidin-4-yl]-2-methoxybenzamide] |
| 106 nM | CCCC(=O)N1CCC(CN2CC[C@H](NC(=O)c3cc(Cl)c(N)cc3OC)[C@H](OC)C2)CC1 (relative stereo) [Compound 20, cis-4-amino-5-chloro-N-[1-((1-butyrylpiperidin-4-yl)methyl)-3-methoxypiperidin-4-yl]-2-methoxybenzamide] |
| 108 nM | COc1cc(N)c(Cl)cc1C(=O)N[C@H]1CCN(CC2CCN(C(=O)OCC(C)C)CC2)C[C@H]1OC (relative stereo) [Compound 9, isobutyl 4-[(cis-4-(4-amino-5-chloro-2-methoxybenzamido)-3-methoxypiperidin-1-yl)methyl]piperidine-1-carboxylate] |
| 146 nM | COc1cc(N)c(Cl)cc1C(=O)N[C@H]1CCN(CC2CCN(C(=O)OCCCC(C)C)CC2)C[C@H]1OC (relative stereo) [Compound 13, 4-methyl-pentyl 4-[(cis-4-(4-amino-5-chloro-2-methoxybenzamido)-3-methoxypiperidin-1-yl)methyl]piperidine-1-carboxylate] |
| 108 nM | COc1cc(N)c(Cl)cc1C(=O)N[C@H]1CCN(CC2CCN(C(=S)C(C)C)CC2)C[C@H]1OC (relative stereo) [Compound 30, cis-4-amino-5-chloro-N-[1-((1-(2-methylpropanethioyl)piperidin-4-yl)methyl)-3-methoxypiperidin-4-yl]-2-methoxybenzamide] |
| 30 nM | CCCCC(CC)COC(=O)N1CCC(CN2CC[C@H](NC(=O)c3cc(Cl)c(N)cc3OC)[C@H](OC)C2)CC1 (relative stereo) [Compound 11, 2-ethylhexyl 4-[(cis-4-(4-amino-5-chloro-2-methoxybenzamido)-3-methoxypiperidin-1-yl)methyl]piperidine-1-carboxylate] |
| 93 nM | C=CCOC(=O)N1CCC(CN2CC[C@H](NC(=O)c3cc(Cl)c(N)cc3OC)[C@H](OC)C2)CC1 (relative stereo) [Compound 10, allyl 4-[(cis-4-(4-amino-5-chloro-2-methoxybenzamido)-3-methoxypiperidin-1-yl)methyl]piperidine-1-carboxylate] |
| 151 nM | CCOC(=O)N1CCC(CCN2CC[C@H](NC(=O)c3cc(Cl)c(N)cc3OC)[C@H](OC)C2)CC1 (relative stereo) [Compound 3, ethyl 4-[2-(cis-4-(4-amino-5-chloro-2-methoxybenzamido)-3-methoxypiperidin-1-yl)ethyl]piperidine-1-carboxylate] |
| 73 nM | CCCCC(=O)N1CCC(CN2CC[C@H](NC(=O)c3cc(Cl)c(N)cc3OC)[C@H](OC)C2)CC1 (relative stereo) [Compound 22, cis-4-amino-5-chloro-N-[1-((1-pentanoylpiperidin-4-yl)methyl)-3-methoxypiperidin-4-yl]-2-methoxybenzamide] |
| 47 nM | CCSC(=O)N1CCC(CN2CC[C@H](NC(=O)c3cc(Cl)c(N)cc3OC)[C@H](OC)C2)CC1 (relative stereo) [Compound 39, S-ethyl 4-[(cis-4-(4-amino-5-chloro-2-methoxybenzamido)-3-methoxypiperidin-1-yl)methyl]piperidine-1-carbothioate] |
| 130 nM | COc1cc(N)c(Cl)cc1C(=O)N[C@H]1CCN(CC2CCN(C(=O)OC(C)C)CC2)C[C@H]1OC (relative stereo) [Compound 8, isopropyl 4-[(cis-4-(4-amino-5-chloro-2-methoxybenzamido)-3-methoxypiperidin-1-yl)methyl]piperidine-1-carboxylate] |
| 116 nM | COc1cc(N)c(Cl)cc1C(=O)N[C@@H]1CCN(CC2CCN(S(C)(=O)=O)CC2)C[C@@H]1OC [Compound 44, (3S,4R)-4-amino-5-chloro-N-[1-((1-(methylsulfonyl)piperidin-4-yl)methyl)-3-methoxypiperidin-4-yl]-2-methoxybenzamide] |
| 44 nM | COc1cc(N)c(Cl)cc1C(=O)N[C@H]1CCN(CCCCCC(=O)Nc2ccc3[nH]ccc3c2)C[C@H]1OC (relative stereo) [Compound 62, cis-4-amino-5-chloro-N-[1-(6-oxo-6-(1H-indol-5-ylamino)hexyl)-3-methoxypiperidin-4-yl]-2-methoxybenzamide] |
| 45 nM | COc1cc(N)c(Cl)cc1C(=O)N[C@H]1CCN(CC2CCN(C(=O)CC(C)(C)C)CC2)C[C@H]1OC (relative stereo) [Compound 26, cis-4-amino-5-chloro-N-[1-((1-(3,3-dimethylbutanoyl)piperidin-4-yl)methyl)-3-methoxypiperidin-4-yl]-2-methoxybenzamide] |
| 58 nM | CCCC(C)C(=O)N1CCC(CN2CC[C@H](NC(=O)c3cc(Cl)c(N)cc3OC)[C@H](OC)C2)CC1 (relative stereo) [Compound 24, cis-4-amino-5-chloro-N-[1-((1-(2-methylpentanoyl)piperidin-4-yl)methyl)-3-methoxypiperidin-4-yl]-2-methoxybenzamide] |
| 47 nM | COc1cc(N)c(Cl)cc1C(=O)N[C@H]1CCN(CC2CCN(S(=O)(=O)C(C)C)CC2)C[C@H]1OC (relative stereo) [Compound 42, cis-4-amino-5-chloro-N-[1-((1-(isopropylsulfonyl)piperidin-4-yl)methyl)-3-methoxypiperidin-4-yl]-2-methoxybenzamide] |
| 52 nM | CCCCCC(=S)N1CCC(CN2CC[C@H](NC(=O)c3cc(Cl)c(N)cc3OC)[C@H](OC)C2)CC1 (relative stereo) [Compound 34, cis-4-amino-5-chloro-N-[1-((1-hexanethioylpiperidin-4-yl)methyl)-3-methoxypiperidin-4-yl]-2-methoxybenzamide] |
